One data set relates to glioblastoma. The conditions noted are these: intracranial pump; WANG et al. 2018; cited from earlier work.
The test system of data set [1] is A549 highly metastatic human lung tumor. The conditions noted are these: Paclitaxel 25 μM.

Take `CC(C)C[C@H](NC(=O)[C@H](Cc1ccccc1)NC(=O)c1cnccn1)B(O)O` [Bortezomib]: the increase in survival with glioblastoma is 40%.

On to `CC(=O)O[C@H]1C(=O)[C@@]2(C)[C@H]([C@H](OC(=O)c3ccccc3)[C@]3(O)C[C@H](OC(=O)[C@H](O)[C@@H](NC(=O)c4ccccc4)c4ccccc4)C(C)=C1C3(C)C)[C@]1(OC(C)=O)CO[C@@H]1C[C@@H]2O` [Paclitaxel, paclitaxel], for which, in data set [1], the “% of embryo death” value was 24%, N = 21; the “Tumor weight” value is 20.558 ± 1.902 mg; the “reduction of brain metastases amount compared to controls” value is 61%.
